The values below are quoted from earlier work in patent publication US7205292B2, “CGRP receptor antagonists” (Merck & Co., Inc., priority 2003, dated 2007).

Data set [1] relates to CGRP. The settings on record: marmoset, electrical stimulation of the trigeminal ganglion.
For data set [2], the system named is CGRP. The settings on record: rats, electrical stimulation of the dura mater, prior administration.
Data set [3] has as its system CGRP. The settings on record: rat, trigeminal ganglion stimulation.

On to `NCCCC[C@H](NC(=O)[C@@H](Cc1cc(Br)c(O)c(Br)c1)NC(=O)N1CCC(N2Cc3ccccc3NC2=O)CC1)C(=O)N1CCN(c2ccncc2)CC1` [BIBN4096BS], for which the “effect on increase in facial blood flow” value in the data set on CGRP [1] is reported as “blocked”.

With CGRP(8-37), the “effect on increased diameter of the middle meningeal artery” value with CGRP [2] is “blocked”. Moreover, the “effect on increased facial blood flow” value in the data set with CGRP [3] was “inhibited”.
